We go through six compounds from patent US10336748B2, “Methyoxy-substituted pyrrolopyridine modulators of RORC2 and methods of use thereof” (Pfizer Inc., priority 2015, dated 2019).

Broadly, the IC50 is the concentration that gives 50% inhibition.

The subject of one assay is human Th17 cells. Nature of the assay: IL-17 production from human Th17 cells. Type of assay: cell-based. The note with it: 144 h; IL-17A in supernatant by ELISA (MSD) after 6 days, human CD4+ T cells, anti-CD3 + anti-CD28 + cytokine cocktail. The procedure:
The activity of compound of the invention can be also be determined by an IL-17 production from human Th17 cells assay. In general, this assay measures blockade of IL-17 production, the signature cytokine of T helper 17 (Th17) cells, by compounds. Purified human CD4+ T cells are stimulated with anti-CD3+anti-CD28 and incubated with a cytokine cocktail that induce their differentiation into Th17 in the absence or presence of various concentrations of compound. After 6 days, IL-17A concentration is measured in the cell culture supernatant with an ELISA kit (MSD).
Preparation of human CD4+ T cells. CD4+ T cells were purified from buffy coats from healthy donors (obtained from Massachusetts General Hospital) by negative selection the following procedure: Mixing 25 mL of blood with 1 mL of Rosette Sep CD4+ T cell enrichment cocktail (StemCell Technologies) followed by application of a layer of 14 mL Ficoll Paque Plus (Amersham GE Healthcare) and subsequent centrifugation at 1200 g for 20 min at room temperature. The Ficoll layer was then harvested and washed with phosphate saline buffer containing 2% (v/v) fetal bovine serum and cells were resuspended with RPMI medium containing 10% (v/v) fetal bovine serum and 10% (v/v) DMSO, frozen and kept in LN2 until used.
On the first day of the assay, a vial containing 10^7 CD4+ T cells is thawed rapidly in 37° C. water bath, immediately transferred into 20 mL X-Vivo 15 medium (Lonza), is spun for 6 min at 300×g, the supernatant is discarded, and the resulting pellet is re-suspended at 10^6 cells/mL in […] fresh X-Vivo 15 medium, followed by storage overnight in a tissue culture vessel in a humidified chamber at 37° C. and 5% CO2. Serial dilutions of compounds of the invention are prepared at 10× final concentration in X-Vivo15 medium containing 3% (v/v) DMSO.
On the second day of the assay, a 384-well tissue culture plate was coated with 10 μg/mL anti-hCD3 (eBioscience) at 50 μL/well. After 2 hr at 37° C., the supernatant is discarded and the coated plates are kept in a sterile tissue culture hood.
Cytokine plus anti-CD28 cocktail is prepared by mixing 25 ng/mL hIL-6 (Peprotech), 5 ng/mL hTGFbeta1 (Peprotech), 12.5 ng/mL IL-1beta (Peprotech), 25 ng/mL hIL-21, 25 ng/mL hIL-23 (R&D Systems), and 1 ug/mL anti-hCD28 (eBioscience) in X-Vivo 15 medium. The cytokine plus anti-CD28 cocktail with CD4+ cells is prepared such that the cocktail is diluted 10-fold and cell density is 0.22×10^6/mL. The mixture is incubated 1 hr at 37° C.
90 μL (20,000 cells) dispensed per well in the anti-hCD3 coated plate prepared as noted above.
10 μL 10× compound is added per well (final DMSO=0.3%) from the compound plate that was previously prepared, followed by 6 days of incubation in a tissue culture vessel in a humidified chamber at 37° C. and 5% CO2.
On day six of the assay, production of IL-17A in 10 μL of the supernatant is determined by sandwich ELISA using 384w hIL17 MSD plates following the manufacturer's protocol. Measurement is carried out in a Sector Imager 6000 by the same manufacturer. Signal units from the instrument are converted to pg/mL using a calibration curve with known amounts of IL-17A. IC50 values of test compounds (Table 2) are determined by the non-linear regression analysis of dose response curves.
Background: An ELISA detects its analyte on a solid surface through an enzyme-linked reagent.

Assay [1] has as its target T1, RORC2 ligand binding domain (6-His-RORC2 LBD) (Homo sapiens, UniProt P51449).
T1 construct: made in house; host or cells: E. coli
T1 sequence (P51449 269-508 limits assumed): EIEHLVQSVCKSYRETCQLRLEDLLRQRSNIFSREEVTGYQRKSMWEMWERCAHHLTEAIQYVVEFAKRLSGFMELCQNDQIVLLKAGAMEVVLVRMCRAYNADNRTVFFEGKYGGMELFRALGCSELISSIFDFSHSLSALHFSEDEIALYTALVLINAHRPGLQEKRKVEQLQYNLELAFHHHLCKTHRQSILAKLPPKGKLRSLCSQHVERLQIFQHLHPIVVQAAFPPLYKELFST
Nature of the assay: Co-activator recruitment by TR-FRET. Type of assay: biochemical. The note with it: 6.3 nM RORC2 LBD, 200 nM SRC1-2 coactivator peptide, 3 hr room temperature. An excerpt:
The activity of compound of the invention can be determined by a co-activator recruitment by TR-FRET (time-resolved fluorescence resonance energy transfer) assay. In general, the assay is based on the interaction between N-terminally Six-Histidine-tagged-RORC2 ligand binding domain (6-His-RORC2 LBD), expressed in E. coli and purified by affinity chromatography, and biotin-coactivator peptide SRC1-2 (biotin-aminohexanoic acid-[…]-NH2; SEQ ID NO: 1) containing the LXXLL consensus domain which is responsible for receptor binding. This interaction is detected by addition of Europium labeled-anti-His antibody (Ex. 337 nm, Em. 620 nm, which binds to 6His) and Streptavidin-APC (Ex. 620 nm, Em. 665 nm, which binds to biotin). When receptor and coactivator are bound to each other, upon shining light at 337 nm on the sample, the Europium emits fluorescence that excites APC due to close proximity (FRET) and this signal is measured at 665 nm. Due to the long lasting fluorescence emission of Europium, the non-specific, short-lived fluorescence is time-resolved (TR) from the fluorescence of interest. Inhibitors of the interaction of receptor and coactivator peptide are detected by a decrease in TR-FRET signal.
Specifically, in one embodiment the aforementioned assay was performed as outlined below. The assay was carried out in black polystyrene. 384-well plates in a total assay volume of 50.5 μL. The assay buffer contained 50 mM TRIS-HCL pH 7.5, 1 mM NaCl, 2 mM MgCl2, 0.5 mg/mL bovine serum albumin, and 5 mM dithiothreitol. The final concentration of reagents was 6.3 nM RORC2 LBD, 200 nM SRC1-2, 50 nM streptavidin APC, 1 nM Europium-labeled anti-His antibody, and varying concentrations of compounds such that final concentration of DMSO is 1% (v/v). The assay steps were: (1) dispensing […] compound at 100× final concentration in DMSO (test wells) or DMSO only (control wells for no inhibition); and (2) dispensing 50 μL mixture of the other assay components including receptor (test wells) or excluding receptor (control wells for maximal inhibition).
Assay mixtures were incubated are room temperature for 3 hr and read in EnVision 2100 Multilabel Reader (PerkinElmer Life Sciences) at Excitation Filter 320, Emission Europium Filter 615, Emission APC Filter 665, Dichroic Mirror D400/D630.
TR-FRET signal was determined by calculating the ratio of 665 nm by 615 nm and […] values of compounds of the invention (Table 1) were determined by the non-linear regression analysis of dose response curves.

As for `COc1ccc(C(=O)Nc2cnc3c(c([C@@H]4CCN(C(=O)C5CCCC5)C(C)(C)C4)cn3C)c2OC)cc1C#N` [Example 30, (R)-3-cyano-N-(3-(1-(cyclopentanecarbonyl)-2,2-dimethylpiperidin-4-yl)-4-methoxy-1-methyl-1H-pyrrolo[2,3-b]pyridin-5-yl)-4-methoxybenzamide], the values for the concentration for half-maximal inhibition (IC50) (with human Th17 cells; in assay [1]) were 6.7 nM and 13.5 nM, respectively.
`COc1c(NC(=O)c2cccc(C#N)c2)cnc2c1c([C@@H]1CCN(C(=O)C3CCCC3)C(C)(C)C1)cn2C` [Example 31, (R)-3-cyano-N-(3-(1-(cyclopentanecarbonyl)-2,2-dimethylpiperidin-4-yl)-4-methoxy-1-methyl-1H-pyrrolo[2,3-b]pyridin-5-yl)benzamide]: the IC50 in the assay on human Th17 cells is 7.2 nM; in assay [1], 5.7 nM.
Consider `COc1ccc(C(=O)Nc2cnc3c(c([C@@H]4CCN(C(=O)C5CCCCC5)C(C)(C)C4)cn3C)c2OC)cc1C#N` [Example 32, (R)-3-cyano-N-(3-(1-(cyclohexanecarbonyl)-2,2-dimethylpiperidin-4-yl)-4-methoxy-1-methyl-1H-pyrrolo[2,3-b]pyridin-5-yl)-4-methoxybenzamide], for which the concentration for half-maximal inhibition (IC50) in the assay on human Th17 cells came out at 11 nM; in assay [1], 5.8 nM.
The matching figures for `COc1c(NC(=O)c2cccc(C#N)c2)cnc2c1c([C@@H]1CCN(C(=O)C3CC(C)(C)C3)C(C)(C)C1)cn2C` [Example 33, (R)-3-cyano-N-(3-(1-(3,3-dimethylcyclobutane-1-carbonyl)-2,2-dimethylpiperidin-4-yl)-4-methoxy-1-methyl-1H-pyrrolo[2,3-b]pyridin-5-yl)benzamide]: 15.6 nM and 8.5 nM.
In the case of `COc1c(NC(=O)c2cccc(C#N)c2)cnc2c1c([C@@H]1CCN(C(=O)[C@@H](C)C(C)(C)C)C(C)(C)C1)cn2C` [Example 34, 3-cyano-N-(3-((R)-2,2-dimethyl-1-((S)-2,3,3-trimethylbutanoyl)piperidin-4-yl)-4-methoxy-1-methyl-1H-pyrrolo[2,3-b]pyridin-5-yl)benzamide], the IC50 in the assay on human Th17 cells stood at 23.1 nM; in assay [1], 9.4 nM.
With `COc1c(NC(=O)c2ccc(SC)c(C#N)c2)cnc2c1c(C1CCN(C(=O)[C@H](C)C(C)(C)C)CC1)cn2C` [Example 35, (R)-3-cyano-N-(4-methoxy-1-methyl-3-(1-(2,3,3-trimethylbutanoyl)piperidin-4-yl)-1H-pyrrolo[2,3-b]pyridin-5-yl)-4-(methylthio)benzamide], the figures for the concentration for half-maximal inhibition (IC50) (in the assay with human Th17 cells; in assay [1]) were 12.7 nM and 3.2 nM, respectively.
